Patent publication US20090137451A1, “Methods for Assessing Suitability of Cancer Patients for Treatment with Histone Deacetylase Inhibitors” (Agency for Science, Technology and Research, priority 2005, published 2009)

How the values were obtained:
Format in all cases: cell-based, human
[1] = test system: ER-E2F1 expressing HCT116 p53 null cells; assay: Cell death (sub-G1) by PI staining and FACS in ER-E2F1 expressing cells; details: for sub-G1 cells indicative of cell death: 48 h; for SAHA-induced apoptosis (cells in Sub-G1): in the presence of 4-OHT, SAHA 24 h
Experimental: The effect of Bim-specific siRNA on HDACI-induced apoptosis upon E2F1 overexpression. (a) ER-E2F1 were transfected with nonspecific control siRNA (NC siRNA) or Bim-specific siRNA for 48 h, and then either left untreated (−) or treated with 4-OHT, SAHA or both for additional 24 h. […] Cell death was analyzed by flow cytometry following propidium iodide staining (right panel). The percentages of cells in Sub-G1 are indicated. (b) ER-E2F1 were transfected with nonspecific control siRNA (NC siRNA) or Bim-specific siRNA for 48 h, and then either left untreated (−) or treated with 4-OHT, 100 nM TSA or both for additional 48 h.
Cells were harvested and fixed in 70% ethanol. Fixed cells were stained with propidium iodide (50 μg/ml) after treatment with RNase (100 μg/ml). The stained cells were analyzed for DNA content by fluorescence-activated cell sorting (FACS) in a FACScalibur (Becton Dickinson Instrument, San Jose, Calif.). Cell cycle fractions were quantified using the CellQuest software (Becton Dickinson).
To definitively establish the role of Bim in HDACIs-induced apoptosis upon E2F1 activation, we used RNA interference to silence Bim expression and analyzed its biological effects. To this end, we transfected ER-E2F1 expressing cells with Bim-specific siRNA and treated with SAHA for 24 h in the presence or absence of 4-OHT. As controls, cells were also transfected with an irrelevant siRNA.

[2] = test system: E1A-transformed IMR90 cells; assay: Apoptosis by FACS analysis in E1A-transformed IMR90 cells; details: SAHA 2.5 μM, TSA 300 nM; 48 h
Experimental: FIG. 5. Rb inactivation enhances Bim expression and sensitizes HDACIs-induced apoptosis. (a) U2OS cells were infected with Ad-E1A or Ad-LacZ for 24 h and treated with SAHA (1 μM) for additional 48 h. Cell death was determined by FACS analysis (right panel), and the levels of Bim and p73 were assessed by immunoblotting using antibodies against the indicated proteins (left panel). (b) Normal IMR90 and transformed IMR90-E1A cells were treated with SAHA at indicated concentrations and cell proliferation was evaluated for indicated times. (c) Expression of E1A results in upregulation of Bim and apoptosis potentiation in response to SAHA and TSA. […] Cell death was determined by FACS analysis (left panel), and the levels of Bim and p73 were assessed by immunoblotting using antibodies against indicated proteins (right panel). […] The expressions of Bim and β-actin were assessed by immunoblotting using antibodies against the indicated proteins. Apoptosis was evaluated by FACS analysis. […] The expressions of E2F1, Bim and PARP were assessed by immunoblotting using antibodies against the indicated proteins. […] Apoptosis was evaluated by FACS analysis.
Cells were harvested and fixed in 70% ethanol. […] The stained cells were analyzed for DNA content by fluorescence-activated cell sorting (FACS) in a FACScalibur (Becton Dickinson Instrument, San Jose, Calif.). […]

normal IMR90 cells = assay: Cell proliferation, dose-response, normal IMR90 cells; details: dose-response study, FIG. 5b
Experimental: (§1) FIG. 5. Rb inactivation enhances Bim expression and sensitizes HDACIs-induced apoptosis. (a) U2OS cells were infected with Ad-E1A or Ad-LacZ for 24 h and treated with SAHA (1 μM) for additional 48 h. Cell death was determined by FACS analysis (right panel), and the levels of Bim and p73 were assessed by immunoblotting using antibodies against the indicated proteins (left panel). (b) Normal IMR90 and transformed IMR90-E1A cells were treated with SAHA at indicated concentrations and cell proliferation was evaluated for indicated times. (c) Expression of E1A results in upregulation of Bim and apoptosis potentiation in response to SAHA and TSA. IMR90 and IMR90-E1A cells were treated with SAHA (2.5 μM) and TSA (300 nM) for 48 h. Cell death was determined by FACS analysis (left panel), and the levels of Bim and p73 were assessed by immunoblotting using antibodies against indicated proteins (right panel). (d) IMR90-E1A cells transfected with Bim siRNA or control siRNA (NC siRNA) were treated with TSA (800 nM) for 24 h. The expressions of Bim and β-actin were assessed by immunoblotting using antibodies against the indicated proteins. Apoptosis was evaluated by FACS analysis. […] The expressions of E2F1, Bim and PARP were assessed by immunoblotting using antibodies against the indicated proteins. […] Apoptosis was evaluated by FACS analysis. […]

[3] = test system: transformed IMR90-E1A cells; assay: Cell proliferation, dose-response, transformed IMR90-E1A cells; details: dose-response study, FIG. 5b
Experimental: as §1

ER-E2F1 expressing cells = assay: Colony formation assay; details: 100 nM TSA or 1 μM SAHA for 24 h, with 4-OHT; colonies stained with crystal violet
Experimental: FIG. 1. HDACIs SAHA and TSA promote E2F1-mediated cell death (a) p53 null HCT116-ER-E2F1 expressing cells or control ER expressing cells were treated with or without 4-OHT. Cyclin E and p73 expression were evaluated by immunoblot analysis. (b) ER-E2F1 expressing or control cells were treated with 1 μM SAHA (left panel) or 100 nM TSA (right panel), in the presence or absence of 4-OHT. After 48 h, cells were harvested and cell death was assessed by PI staining using FACS. Mean results of three independent experiments were shown with standard deviations. (c) Colony formation assay. […] (d) Saos-2 and HCT116 cells infected with adenovirus containing E2F1 or LacZ as indicated were treated with 100 nM TSA for 24 h, and cell death was analyzed by FACS.
1000 cells were plated per well of a 6-well plate for 24-48 h and then followed by 100 nM TSA or 1 μM SAHA treatment in the presence or absence of 4-OHT. […] Colonies were stained with crystal violet and counted after 12 days.
To investigate whether E2F1 activation induces sensitization of cells to HDACIs-induced cell death, we analyzed the cell cycle profiles by FACS (fluorescence-activated cell sorter) in ER-E2F1 expressing HCT116 p53 null cells (ER-E2F1) and the control cells expressing ER-binding domain only (ER) following treatment with the HDACIs SAHA or TSA in the presence or absence of 4-OHT. […]

[4] = agent alone, 1 μM SAHA, PI staining FACS
[5] = both 4-OHT and HDACI (1 μM SAHA or 100 nM TSA)

Compound	sub-G1 cells indicative of cell death [1, 4]	sub-G1 cells indicative of cell death [1, 5]	SAHA-induced apoptosis (cells in Sub-G1) ([1]; cells treated with Bim siRNA) [%]	SAHA-induced apoptosis (cells in Sub-G1) ([1]; control siRNA treated cells) [%]	apoptosis [2] [%]	proliferation (normal IMR90 cells)	proliferation [3]	effect of E2F1 activation by 4-OHT on HDACI-induced growth inhibition (ER-E2F1 expressing cells)
4-hydroxytamoxifen [4-OHT]	approximately 13%	–	–	–	–	–	–	–
O=C(CCCCCCC(=O)Nc1ccccc1)NO [SAHA, suberoylanilide hydroxamic acid]	~23%	75%	18	49	~60	substantially inhibited proliferation	substantially inhibited proliferation	greatly promoted
CC(/C=C/C(=O)NO)=C\[C@@H](C)C(=O)c1ccc(N(C)C)cc1 [TSA, Trichostatin A]	–	Identical results	–	–	~60	–	–	greatly promoted
